This passage reports TGI and GI50 results from PubChem BioAssay (NCI).

Test systems include NCI-H522 lung; LOX IMVI melanoma; MALME-3M melanoma; HCT-15 colon; SK-MEL-5 melanoma; SF-295 CNS; UACC-257 melanoma; OVCAR-4 ovarian; HL-60(TB) leukemia; OVCAR-8 ovarian.
Assay in all cases: NCI-60 cell line screen, 48 h

Several values for one entry are separate records, joined by “and”; a condition that tells them apart may be missing. Identical values can stand only once.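 Growth conditions: 96-well plates. Treatment: test compound, 48 hours, 5 concentrations. Analysis: linear interpolation between bracketing concentrations; unreached endpoints set to highest concentration. Abbreviation: GI50, concentration required for 50% inhibition of growth. TGI denotes the concentration required for complete inhibition of growth.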 A value given as a limit tells only on which side of the number the result lay.

For the compound `Clc1ccc2c(c1)N(CCCN1CCCC13CCCCC3)c1ccccc1S2`, the TGI in the test with NCI-H522 lung is 25.1 µM; in the test on LOX IMVI melanoma, 26.5 µM; with MALME-3M melanoma, 28.1 µM; in the test with HCT-15 colon it was 42.5 µM; with SK-MEL-5 melanoma, > 56 µM; with SF-295 CNS it was 29.2 µM. In addition, the TGI is 24.4 µM with UACC-257 melanoma, 41.7 µM in the test on OVCAR-4 ovarian, 5.18 µM in the test on HL-60(TB) leukemia and 42.6 µM with OVCAR-8 ovarian.

Turning to `CC(=O)n1[nH]c(=O)n(-c2ccc(Cl)cc2)c1=O`, the TGI in the test on NCI-H522 lung, in the test with LOX IMVI melanoma, in the test on MALME-3M melanoma, with HCT-15 colon, in the test on SK-MEL-5 melanoma and in the test with SF-295 CNS was > 100 µM in each case. The TGI with UACC-257 melanoma, in the test with OVCAR-4 ovarian, in the test with HL-60(TB) leukemia and in the test with OVCAR-8 ovarian was > 100 µM each time.

With `COC1(CC[C@@H](C)COC2OC(CO)C(O)C(O)C2O)OC2C[C@H]3[C@@H]4CC[C@H]5C[C@@H](OC6OC(CO)C(OC7OC(CO)C(O)C(O)C7O)C(O)C6OC6OC(C)C(O)C(O)C6O)[C@H](O)C[C@]5(C)[C@H]4CC[C@]3(C)C2[C@@H]1C` (stereo partly drawn), the TGI is 4.63 µM in the test on NCI-H522 lung; 3.22 µM with LOX IMVI melanoma; 3.33 µM in the test with MALME-3M melanoma; > 22.8 µM in the test with HCT-15 colon; 3.36 µM in the test on SK-MEL-5 melanoma; 3.28 µM with SF-295 CNS. Also, the TGI is 3.5 µM with UACC-257 melanoma, 3.96 µM in the test on OVCAR-4 ovarian, 5.38 µM in the test with HL-60(TB) leukemia and 3.75 µM with OVCAR-8 ovarian.

Take `COC(=O)C1OC(O[C@H]2CC[C@]3(C)[C@H]4CC=C5[C@@H]6CC(C)(C)CC[C@]6(C(=O)OC6OCC(O)C(O)C6OC6OC(C)C(OC7OCC(O)C(O)C7O)C(O)C6O)[C@H](O)C[C@@]5(C)[C@]4(C)CC[C@H]3C2(C)C)C(O)C(O)C1O` (stereo partly drawn): the TGI was 6.84 µM and 5.14 µM in the test on NCI-H522 lung; 19.6 µM and 14.5 µM in the test on LOX IMVI melanoma; 16.2 µM and 23.6 µM in the test on MALME-3M melanoma; 42.8 µM and 27.5 µM with HCT-15 colon; 19.4 µM and 25.8 µM in the test on SK-MEL-5 melanoma; 13.7 µM and 14.9 µM in the test on SF-295 CNS. In addition, the TGI in the test with UACC-257 melanoma is 8.87 µM and 18.6 µM; with OVCAR-4 ovarian, 6.7 µM and 16.5 µM; with HL-60(TB) leukemia, 5.28 µM and 6.62 µM; in the test with OVCAR-8 ovarian, 26.8 µM and 8.47 µM. Besides, the GI50 in the test on MALME-3M melanoma is 4.78 µM and 11.2 µM; with OVCAR-4 ovarian, 927 nM and 4320 nM; in the test on OVCAR-8 ovarian it was 11.8 µM and 2.76 µM.

With `CC(C)(C)C1CCC2c3c([nH]c4ccccc34)C3C(=O)N(c4ccc([N+](=O)[O-])cc4)C(=O)C3C2C1` (stereo not drawn), the TGI was 40.8 µM in the test with NCI-H522 lung; 20.8 µM in the test on LOX IMVI melanoma; 43.7 µM with MALME-3M melanoma; > 100 µM with HCT-15 colon; 25.6 µM in the test with SK-MEL-5 melanoma; 93.8 µM in the test on SF-295 CNS. Besides, the TGI in the test on UACC-257 melanoma is > 100 µM; in the test on OVCAR-4 ovarian, 71.9 µM; in the test on HL-60(TB) leukemia, 34.7 µM; in the test on OVCAR-8 ovarian, > 100 µM.

On to `C/C(=C1\N=C(c2ccccc2)OC1=O)c1ccccc1`, for which the TGI in the test with NCI-H522 lung, in the test on LOX IMVI melanoma, in the test on MALME-3M melanoma, in the test with HCT-15 colon, with SK-MEL-5 melanoma and in the test on SF-295 CNS was > 100 µM in each case. Moreover, the TGI with UACC-257 melanoma, with OVCAR-4 ovarian, in the test on HL-60(TB) leukemia and in the test on OVCAR-8 ovarian was > 100 µM throughout.

On to `CC1=C(CO)C(=O)OC(C(C)C2CCC3C4CC5OC56C(O)C(N5CC5)=CC(=O)C6(C)C4CCC23C)C1` (stereo not drawn), for which the TGI came to 3.36 µM with NCI-H522 lung; 31.1 µM with LOX IMVI melanoma; 25.1 µM with MALME-3M melanoma; 12.9 µM in the test on HCT-15 colon; 25.4 µM in the test on SK-MEL-5 melanoma; 33.7 µM in the test on SF-295 CNS. In addition, the TGI with UACC-257 melanoma amounted to 24.4 µM; with OVCAR-4 ovarian, 20.6 µM; in the test with HL-60(TB) leukemia, 6.08 µM; in the test with OVCAR-8 ovarian, 5.78 µM.

For `N#CCCC(C=O)(CCC#N)CCC#N`, the TGI with NCI-H522 lung, with LOX IMVI melanoma, in the test on MALME-3M melanoma, in the test with HCT-15 colon, in the test with SK-MEL-5 melanoma and in the test with SF-295 CNS was > 100 µM in each case. Moreover, the TGI with UACC-257 melanoma, with OVCAR-4 ovarian, with HL-60(TB) leukemia and with OVCAR-8 ovarian was > 100 µM throughout.

Consider `O=C(O)c1c(CC(Cc2ccc3c(c2)CCC3)C(=O)O)ccc2c1CCC2` (stereo not drawn), for which the TGI in the test with NCI-H522 lung, in the test with LOX IMVI melanoma, in the test on MALME-3M melanoma, with HCT-15 colon, with SK-MEL-5 melanoma and in the test on SF-295 CNS was > 100 µM throughout. In addition, the TGI with UACC-257 melanoma, with OVCAR-4 ovarian, in the test with HL-60(TB) leukemia and in the test on OVCAR-8 ovarian was > 100 µM each time.

Take `Clc1ccc2c(NCCCCCCNc3ccnc4cc(Cl)ccc34)ccnc2c1`: the TGI with NCI-H522 lung was 3.19 µM; in the test on LOX IMVI melanoma, 3.35 µM; with MALME-3M melanoma, 32.6 µM; in the test with HCT-15 colon, 8.08 µM; in the test on SK-MEL-5 melanoma, 10.9 µM; with SF-295 CNS it was 5.56 µM. Also, the TGI was determined as 14.6 µM in the test on UACC-257 melanoma, 5.93 µM with OVCAR-4 ovarian, 4.7 µM in the test on HL-60(TB) leukemia and 4.9 µM with OVCAR-8 ovarian.
